Legend:
Type in all cases: in vivo
[1] = tested on: kochia (Bassia scoparia); assay: Test A preemergence, kochia; settings: Preemergence; for Plant response rating, Kochia: 0 to 100 scale (0 no effect, 100 complete control); for Kochia plant response rating: visual injury on 0 to 100 scale (0 no effect, 100 complete control), approximately 10 days
Procedure, shortened: (§1)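 Directed soil spray at planting gave the preemergence treatment, while foliar application to one- to two-leaf seedlings (2–10 cm) gave the postemergence one; pots held a loam and sand mixture and chemicals were carried in a non-phytotoxic solvent with surfactant.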

[2] = tested on: pigweed (Amaranthus retroflexus); assay: Test A postemergence, pigweed; settings: Postemergence
Procedure, shortened: as §1

[3] = tested on: Ryegrass, Italian (Italian ryegrass, Lolium multiflorum); assay: Test A postemergence, Ryegrass, Italian; settings: Postemergence
Procedure, shortened: as §1

[4] = tested on: barnyardgrass (Echinochloa crus-galli); assay: Test A postemergence, barnyardgrass; settings: Postemergence, 0 to 100 scale (0 no effect, 100 complete control)
Procedure, shortened: (§2)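 Seeds are sown in loam mixed with sand and sprayed on the soil surface right after planting for the preemergence test. Postemergence pots are sprayed once seedlings reach 2 to 10 cm at the one- to two-leaf stage. The same surfactant-containing, non-phytotoxic solvent formulation serves both.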

[5] = tested on: pigweed (Amaranthus retroflexus); assay: Test A preemergence, pigweed; settings: for Plant response rating, Pigweed: 0 to 100 scale (0 no effect, 100 complete control); for Pigweed plant response rating: visual injury on 0 to 100 scale (0 no effect, 100 complete control), approximately 10 days
Procedure, shortened: as §2

[6] = tested on: blackgrass (Alopecurus myosuroides); assay: Test A postemergence, blackgrass; settings: Postemergence, 0 to 100 scale (0 no effect, 100 complete control)
Procedure, shortened: as §1

[7] = tested on: corn (Zea mays); assay: Test A postemergence, corn; settings: Postemergence
Procedure, shortened: as §1

[8] = tested on: Foxtail, Giant (giant foxtail, Setaria faberi); assay: Test A preemergence, Foxtail, Giant; settings: Preemergence; for Plant response rating, Foxtail, Giant: 0 to 100 scale (0 no effect, 100 complete control); for Foxtail, Giant plant response rating: visual injury on 0 to 100 scale (0 no effect, 100 complete control), approximately 10 days
Procedure, shortened: as §1

[9] = tested on: kochia (Bassia scoparia); assay: Test A postemergence, kochia; settings: Postemergence
Procedure, shortened: as §1

[10] = tested on: ragweed (common ragweed, Ambrosia artemisiifolia); assay: Test A preemergence, ragweed; settings: Preemergence; for Plant response rating, Ragweed: 0 to 100 scale (0 no effect, 100 complete control); for Ragweed plant response rating: visual injury on 0 to 100 scale (0 no effect, 100 complete control), approximately 10 days
Procedure, shortened: as §1

[11] = tested on: barnyardgrass (Echinochloa crus-galli); assay: Test A preemergence, barnyardgrass; settings: Preemergence; for Plant response rating, Barnyardgrass: 0 to 100 scale (0 no effect, 100 complete control); for Barnyardgrass plant response rating: visual injury on 0 to 100 scale (0 no effect, 100 complete control), approximately 10 days
Procedure, shortened: as §1

[12] = tested on: Foxtail, Giant (giant foxtail, Setaria faberi); assay: Test A postemergence, Foxtail, Giant; settings: Postemergence
Procedure, shortened: as §1

[13] = tested on: wheat (Triticum aestivum); assay: Test A postemergence, wheat; settings: Postemergence
Procedure, shortened: as §2

[14] = tested on: Ryegrass, Italian (Italian ryegrass, Lolium multiflorum); assay: Test A preemergence, Ryegrass, Italian; settings: Preemergence; for Plant response rating, Ryegrass, Italian: 0 to 100 scale (0 no effect, 100 complete control); for Ryegrass, Italian plant response rating: visual injury on 0 to 100 scale (0 no effect, 100 complete control), approximately 10 days
Procedure, shortened: as §1

[15] = tested on: ragweed (common ragweed, Ambrosia artemisiifolia); assay: Test A postemergence, ragweed; settings: Postemergence
Procedure, shortened: as §1

[16] = tested on: galium (catchweed bedstraw, Galium aparine); assay: Test A postemergence, galium; settings: Postemergence
Procedure, shortened: as §2

[17] = 1000 g ai/ha, visual injury, 0 to 100 scale (0 no effect, 100 complete control), approx. 10 days
[18] = 1000 g ai/ha, visual injury, approx. 10 days
[19] = 31 g ai/ha, visual injury, approx. 10 days
[20] = 31 g ai/ha, visual injury on 0 to 100 scale (0 no effect, 100 complete control), approx. 10 days
[21] = 125 g ai/ha, visual injury approx. 10 days, 0 to 100 scale (0 no effect, 100 complete control)
[22] = 125 g ai/ha, visual injury approx. 10 days
[23] = 125 g ai/ha, 0 to 100 scale (0 no effect, 100 complete control)
[24] = 125 g ai/ha, visual injury, approx. 10 days
[25] = 500 g ai/ha, visual injury vs untreated controls after approx. 10 days, 0 to 100 scale (0 no effect, 100 complete control)
[26] = 500 g ai/ha, visual injury vs untreated controls after approx. 10 days

## Cc1ccc(C(=O)N2CCC(C)CC2)cc1NS(=O)(=O)C(F)(F)F [Compound 7]
[1]; 1000 g ai/ha
  Plant response rating, Kochia: 30
[2]; [17]
  Plant response rating, Pigweed: 20
[3]; [17]
  Plant response rating, Ryegrass, Italian: 90
[4]; [18]
  Plant response rating, Barnyardgrass: 20
[5]; 1000 g ai/ha
  Plant response rating, Pigweed: 80
[6]; [18]
  Plant response rating, Blackgrass: 20
[7]; [17]
  Plant response rating, Corn: 0
[8]; 1000 g ai/ha
  Plant response rating, Foxtail, Giant: 90
[9]; [17]
  Plant response rating, Kochia: 40
[10]; 1000 g ai/ha
  Plant response rating, Ragweed: 80
[11]; 1000 g ai/ha
  Plant response rating, Barnyardgrass: 80
[12]; [17]
  Plant response rating, Foxtail, Giant: 0
[13]; [17]
  Plant response rating, Wheat: 0
[14]; 1000 g ai/ha
  Plant response rating, Ryegrass, Italian: 60
[15]; [17]
  Plant response rating, Ragweed: 20
[16]; [17]
  Plant response rating, Galium: 40

## Cc1cc(C)c(N(S(=O)(=O)C(F)(F)F)S(=O)(=O)C(F)(F)F)cc1C(=O)N1CCCC(F)C1 (stereo not drawn) [Compound 118]
[1]; [19]
  Plant response rating, Kochia: 0
[1]; 125 g ai/ha
  Kochia plant response rating: 0
[2]; [20]
  Plant response rating, Pigweed: 30
[2]; [21]
  Plant response rating, Pigweed: 90
[3]; [20]
  Plant response rating, Ryegrass, Italian: 0
[4]; 31 g ai/ha
  Plant response rating, Barnyardgrass: 10
[4]; [22]
  Plant response rating, Barnyardgrass: 90
[5]; [19]
  Plant response rating, Pigweed: 100
[5]; 125 g ai/ha
  Pigweed plant response rating: 100
[6]; 31 g ai/ha
  Plant response rating, Blackgrass: 20
[6]; [22]
  Plant response rating, Blackgrass: 10
[7]; [20]
  Plant response rating, Corn: 0
[7]; [21]
  Plant response rating, Corn: 0
[8]; [19]
  Plant response rating, Foxtail, Giant: 80
[8]; 125 g ai/ha
  Foxtail, Giant plant response rating: 100
[9]; [20]
  Plant response rating, Kochia: 10
[9]; [21]
  Plant response rating, Kochia: 40
[10]; [19]
  Plant response rating, Ragweed: 50
[10]; 125 g ai/ha
  Ragweed plant response rating: 100
[11]; [19]
  Plant response rating, Barnyardgrass: 0
[11]; 125 g ai/ha
  Barnyardgrass plant response rating: 90
[12]; [20]
  Plant response rating, Foxtail, Giant: 0
[12]; [21]
  Plant response rating, Foxtail, Giant: 30
[13]; [20]
  Plant response rating, Wheat: 0
[13]; [21]
  Plant response rating, Wheat: 40
[14]; [19]
  Plant response rating, Ryegrass, Italian: 40
[14]; 125 g ai/ha
  Ryegrass, Italian plant response rating: 80
[15]; [20]
  Plant response rating, Ragweed: 20
[15]; [21]
  Plant response rating, Ragweed: 80
[16]; [20]
  Plant response rating, Galium: 40
[16]; [21]
  Plant response rating, Galium: 90

## CCCCC(=O)OCN(c1cc(C2=NOC3(CCCC3)C2)c(C)cc1C)S(=O)(=O)C(F)(F)F [Compound 143]
[1]; [19]
  Plant response rating, Kochia: 0
[1]; 125 g ai/ha
  Kochia plant response rating: 20
[2]; [20]
  Plant response rating, Pigweed: 20
[2]; [23]
  Plant response rating, Pigweed: 40
[3]; [20]
  Plant response rating, Ryegrass, Italian: 0
[3]; [23]
  Plant response rating, Ryegrass, Italian: 20
[4]; 31 g ai/ha
  Plant response rating, Barnyardgrass: 0
[4]; [22]
  Plant response rating, Barnyardgrass: 50
[5]; [19]
  Plant response rating, Pigweed: 60
[5]; 125 g ai/ha
  Pigweed plant response rating: 100
[6]; 31 g ai/ha
  Plant response rating, Blackgrass: 60
[6]; [22]
  Plant response rating, Blackgrass: 0
[7]; [20]
  Plant response rating, Corn: 0
[7]; [21]
  Plant response rating, Corn: 20
[8]; [19]
  Plant response rating, Foxtail, Giant: 50
[8]; 125 g ai/ha
  Foxtail, Giant plant response rating: 100
[9]; [20]
  Plant response rating, Kochia: 10
[9]; [21]
  Plant response rating, Kochia: 20
[10]; [19]
  Plant response rating, Ragweed: 0
[10]; 125 g ai/ha
  Ragweed plant response rating: 0
[11]; [19]
  Plant response rating, Barnyardgrass: 80
[11]; 125 g ai/ha
  Barnyardgrass plant response rating: 90
[12]; [20]
  Plant response rating, Foxtail, Giant: 0
[12]; [21]
  Plant response rating, Foxtail, Giant: 30
[13]; [20]
  Plant response rating, Wheat: 20
[13]; [23]
  Plant response rating, Wheat: 50
[14]; [19]
  Plant response rating, Ryegrass, Italian: 90
[14]; 125 g ai/ha
  Ryegrass, Italian plant response rating: 90
[15]; [20]
  Plant response rating, Ragweed: 0
[15]; [23]
  Plant response rating, Ragweed: 10
[16]; [20]
  Plant response rating, Galium: 50
[16]; [21]
  Plant response rating, Galium: 40

## Cc1cc(F)c(C(=O)N(C)C)cc1NS(=O)(=O)C(F)(F)F [Compound 215]
[1]; [24]
  Plant response rating, Kochia: 80
[1]; 500 g ai/ha
  Plant response rating, Kochia: 90
[2]; [23]
  Plant response rating, Pigweed: 50
[2]; [25]
  Pigweed plant response rating: 80
[3]; [23]
  Plant response rating, Ryegrass, Italian: 0
[3]; [25]
  Ryegrass, Italian plant response rating: 60
[4]; 125 g ai/ha
  Plant response rating, Barnyardgrass: 0
[4]; [26]
  Barnyardgrass plant response rating: 40
[5]; [24]
  Plant response rating, Pigweed: 100
[5]; 500 g ai/ha
  Plant response rating, Pigweed: 90
[6]; 125 g ai/ha
  Plant response rating, Blackgrass: 0
[6]; [26]
  Blackgrass plant response rating: 0
[7]; [23]
  Plant response rating, Corn: 0
[7]; [25]
  Corn plant response rating: 60
[8]; [24]
  Plant response rating, Foxtail, Giant: 40
[8]; 500 g ai/ha
  Plant response rating, Foxtail, Giant: 70
[9]; [23]
  Plant response rating, Kochia: 30
[9]; [25]
  Kochia plant response rating: 70
[10]; [24]
  Plant response rating, Ragweed: 0
[10]; 500 g ai/ha
  Plant response rating, Ragweed: 20
[11]; [24]
  Plant response rating, Barnyardgrass: 60
[11]; 500 g ai/ha
  Plant response rating, Barnyardgrass: 90
[12]; [23]
  Plant response rating, Foxtail, Giant: 20
[12]; [25]
  Foxtail, Giant plant response rating: 50
[13]; [23]
  Plant response rating, Wheat: 30
[13]; [25]
  Wheat plant response rating: 70
[14]; [24]
  Plant response rating, Ryegrass, Italian: 20
[14]; 500 g ai/ha
  Plant response rating, Ryegrass, Italian: 70
[15]; [23]
  Plant response rating, Ragweed: 60
[15]; [25]
  Ragweed plant response rating: 80
[16]; [23]
  Plant response rating, Galium: 50
[16]; [25]
  Galium plant response rating: 70

Source: US20230278972A1, “SUBSTITUTED HALOALKYL SULFONANILIDE HERBICIDES” (FMC Corporation, priority 2020, published 2023)
